Results from PMC7155171, “Probing the Open Global Health Chemical Diversity Library for Multistage-Active Starting Points for Next-Generation Antimalarials” (ACS Infectious Diseases, 2020).
Read-outs that look alike come from different tables or passages of the source.

Experiments:
[1] = test system: P. berghei liver stage (PbLuc); experiment: P. berghei luciferase liver stage (PbLuc) assay in HepG2-A16-CD81 hepatocytes; assay type: cell-based, Plasmodium berghei; conditions: Plasmodium berghei; for Emax: 12pt dose response, maximum inhibition
[2] = target: recombinant firefly luciferase (Photinus pyralis, UniProt P08659); experiment: biochemical; conditions: for Emax: maximum inhibition, read-out: rLuc inhibition dose response: Maximum inhibition (%)
Sequence of recombinant firefly luciferase (P08659 whole entry): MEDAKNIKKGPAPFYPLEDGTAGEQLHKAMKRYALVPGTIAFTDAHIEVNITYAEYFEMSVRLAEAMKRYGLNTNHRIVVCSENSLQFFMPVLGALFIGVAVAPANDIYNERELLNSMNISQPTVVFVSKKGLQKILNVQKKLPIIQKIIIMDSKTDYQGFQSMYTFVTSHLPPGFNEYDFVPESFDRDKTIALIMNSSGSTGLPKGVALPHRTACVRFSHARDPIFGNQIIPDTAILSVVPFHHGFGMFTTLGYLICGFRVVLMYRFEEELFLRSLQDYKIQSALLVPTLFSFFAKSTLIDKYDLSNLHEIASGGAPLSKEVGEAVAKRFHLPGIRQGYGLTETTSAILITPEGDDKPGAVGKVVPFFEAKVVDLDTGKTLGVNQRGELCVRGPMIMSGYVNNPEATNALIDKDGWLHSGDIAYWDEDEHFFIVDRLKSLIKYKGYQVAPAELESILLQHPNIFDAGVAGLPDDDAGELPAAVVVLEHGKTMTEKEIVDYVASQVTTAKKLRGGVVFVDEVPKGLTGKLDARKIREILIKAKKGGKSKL

[3] = HepG2 cytotoxicity screening (CellTiter-Glo); conditions: human, uninfected HepG2-A16-CD81 (EGFP) hepatocytes
[4] = test system: HepG2-A16-CD81 hepatocytes; experiment: HepG2 cytotoxicity screening (CellTiter-Glo); conditions: for HepG2 cytotoxicity 12pt dose response: Maximum inhibition (%): 12pt dose response; for IC50: HepG2-A16-CD81, read-out: HepG2 tox IC50
[5] = test system: P. falciparum Dd2 (PfLuc) line expressing firefly luciferase, asexual blood stage; experiment: microbe, parasite or virus in culture; assay type: cell-based, Plasmodium falciparum; conditions: Plasmodium falciparum
P. falciparum Dd2 = experiment: SYBR green I asexual blood stage proliferation assay (96 h); assay type: cell-based, Plasmodium falciparum; conditions: Plasmodium falciparum, DD2, Sybr Green I, 11-pt dose response, 96hr; for IC50: read-out: CDD P. falciparum Sybr Green I ABS 11-pt Reconfirmation Dose Response (96hr): IC50; for Emax: read-out: CDD P. falciparum Sybr Green I ABS 11-pt Reconfirmation Dose Response (96hr): Maximum inhibition (%)
[6] = HepG2-A16-CD81, 12pt dose response, read-out: PbLuc 12pt dose response: IC50
[7] = dose response, read-out: rLuc inhibition dose response: IC50
[8] = HepG2-A16-CD81, 48 h, 48 h liver stage, HepG2-A16-CD81, read-out: Pbluc (EEF) IC50
[9] = DD2, read-out: CDD P. falciparum Luciferase ABS 11-pt Reconfirmation Dose Response (48hr): IC50 (μM), 11-pt dose response, 48hr
[10] = DD2, 8-pt dose response, 96hr, read-out: CDD P. falciparum Luciferase ABS 8-pt Reconfirmation Dose Response (96hr): IC50
[11] = DD2, 8-pt dose response, 96hr, read-out: CDD P. falciparum Luciferase ABS 8-pt Reconfirmation Dose Response (96hr): Maximum inhibition (%)
[12] = DD2, 11-pt dose response, 48hr, read-out: CDD P. falciparum Luciferase ABS 11-pt Reconfirmation Dose Response (48hr): Maximum inhibition (%)
[13] = DD2, 11-pt dose response, 96hr, read-out: CDD P. falciparum Luciferase ABS 11-pt Reconfirmation Dose Response (96hr): IC50
[14] = DD2, 11-pt dose response, 96hr, read-out: CDD P. falciparum Luciferase ABS 11-pt Reconfirmation Dose Response (96hr): Maximum inhibition (%)

| SMILES | IC50 [1, 8] [µM] | IC50 ([2]; read-out: rLuc IC50) [µM] | IC50 [4] [µM] | further results |
| --- | --- | --- | --- | --- |
| CCOC(=O)N1CCN(c2nc(CCN)nc3sc(C)c(C)c23)CC1 [UCSD-0834429] |  |  |  | IC50 [1, 6]: 8.74 µM; Emax ([1]; HepG2-A16-CD81, 48 h): 87.7%; Emax ([2]; dose response): 5.96%; IC50 [2, 7]: > 25 µM; IC50 [3]: > 25 µM; inhibition at 2 µM [3]: -5.69%; inhibition at 10 µM [3]: -49.3%; HepG2 cytotoxicity 12pt dose response: Maximum inhibition (%) [4]: 28% |
| NC(=O)c1ccc(N2CCCCC2)c(NC(=O)c2ccc(F)cc2F)c1 [UCSD-0811362] |  |  |  | IC50 [1, 6]: 8.87 µM; Emax ([1]; HepG2-A16-CD81, 48 h): 81%; Emax ([2]; dose response): 19.1%; IC50 [2, 7]: > 25 µM; IC50 [3]: > 25 µM; inhibition at 2 µM [3]: 2.8%; HepG2 cytotoxicity 12pt dose response: Maximum inhibition (%) [4]: 5.59% |
| Cc1nc(NC(=O)c2c(-n3cnnn3)sc3c2CCCC3)sc1C [UCSD-0786506] |  |  |  | IC50 [1, 6]: 0.253 µM; Emax ([1]; HepG2-A16-CD81, 48 h): 88.6%; Emax ([2]; dose response): 15%; IC50 [2, 7]: > 50 µM; IC50 [3]: > 50 µM; inhibition at 2 µM [3]: 10.9%; HepG2 cytotoxicity 12pt dose response: Maximum inhibition (%) [4]: 4.09% |
| Cc1ccoc1C(=O)NC1CCN(Cc2csc3c(F)cccc23)CC1 [UCSD-0846562] |  |  |  | IC50 [1, 6]: 11.1 µM; Emax ([2]; dose response): 3.24%; IC50 [2, 7]: > 25 µM; IC50 [3]: > 25 µM; HepG2 Cytotoxicity primary screen (2uM): % Inhibition ([4]; 2uM, primary screen): -2.96%; HepG2 cytotoxicity 12pt dose response: Maximum inhibition (%) [4]: 25.1% |
| COc1ccc2cc(C3CN(C(=O)N(C)C)CCO3)ccc2c1 (centres unmarked) [DDD01257372] | < 0.000141 | 3.45 | > 25 |  |
| Cc1cc(C(=O)N2CCN(c3nc4c(C(C)C)cccc4s3)CC2)on1 [DDD01027654] | 4 | > 50 | > 25 |  |
| COc1ccc2cc(C3CN(C(=O)CCNC(C)=O)CCO3)ccc2c1 (centres unmarked) [DDD01248593] | 0.333 | 9.9 | > 25 |  |
| CNC(=O)CCC(=O)N1CCOC(c2ccc3cc(OC)ccc3c2)C1 (centres unmarked) [DDD01251007] | 0.000954 | 23.5 | > 25 |  |
| CC(C)c1cc(=O)[nH]c(-n2nc(C3CC3)cc2N)n1 [DDD01027469] | 1.61 | > 25 | 18.9 |  |
| COc1cc(C)c(CN2CCc3nc4ccsc4c(=O)n3CC2)cc1C [DDD01059934] | 8.88 | > 25 | > 25 |  |
| Clc1ccc(-c2ccc(C3CNCCO3)nc2)cc1 (centres unmarked) [DDD01060778] | < 0.000141 | 0.06 | > 25 | IC50 [5, 9]: 1.38 µM; IC50 [5, 10]: 0.46 µM; Emax [5, 11]: 93%; Emax [5, 12]: 97.5%; IC50 [5, 13]: 1.36 µM; Emax [5, 14]: 99.3%; IC50 (P. falciparum Dd2): > 12.5 µM; Emax (P. falciparum Dd2): 56.1% |
| Cc1[nH]/c(=N\C(=O)c2csc(NC3CCCC3)n2)sc1C [DDD01035522] | 0.832 | 44.4 | 11 |  |
| CCS(=O)(=O)N1CCc2ccc(NC(=O)Nc3cccc(SC)c3)cc21 [DDD01035781] | 1.38 | > 25 | 3.39 |  |
| Fc1ccc(CN2CCCC(c3cc4ncccc4[nH]3)C2)cc1 (centres unmarked) [DDD01057419] | 8.45 | > 25 | > 25 |  |
| Cc1cc(C(=O)N2CCN(c3nc4c(C(C)C)cccc4s3)CC2)no1 [DDD01027513] | 0.822 | > 50 | > 25 |  |
| CCOc1ccc(CN2CCCC(c3cc4ncccc4[nH]3)C2)cc1 (centres unmarked) [DDD01057418] | 5.76 | > 25 | > 25 | IC50 [5, 9]: 1.07 µM; IC50 [5, 10]: 0.96 µM; Emax [5, 11]: 95.5%; Emax [5, 12]: 96.8%; IC50 [5, 13]: 0.872 µM; Emax [5, 14]: 100%; IC50 (P. falciparum Dd2): 0.934 µM; Emax (P. falciparum Dd2): 95.7% |
| CCS(=O)(=O)N1CCc2ccc(NC(=O)Nc3cccc(F)c3)cc21 [DDD01025926] | 9.31 | > 25 | 17.8 |  |
| COc1ccc(-c2ccc(C3CNCCO3)nc2)cc1 (centres unmarked) [DDD01061023] | < 0.000141 | 0.03 | > 50 |  |
| Cc1cnc(NC(=O)c2csc(NC3CCCC3)n2)s1 [DDD01026924] | 8.33 | 24.8 | > 25 |  |
